# Experimental data as given in ChEMBL document CHEMBL4507258 (2021).
# Assays:
# [1] = molecular target: ALK tyrosine kinase receptor (Homo sapiens) (UniProt Q9UM73); details: Compound concentration 1000.0 nM
# [2] = molecular target: Sodium-dependent serotonin transporter (Homo sapiens) (UniProt P31645); details: Compound concentration 10.0 uM
# [3] = molecular target: 5-hydroxytryptamine receptor 1E (Homo sapiens) (UniProt P28566); details: Compound concentration 10.0 uM
# [4] = molecular target: cGMP-dependent protein kinase 2 (Homo sapiens) (UniProt Q13237); details: Compound concentration 1000.0 nM
# [5] = molecular target: Ephrin type-B receptor 3 (Homo sapiens) (UniProt P54753); details: Compound concentration 1000.0 nM
# [6] = molecular target: Phosphatidylinositol 3-kinase C2 domain-containing subunit gamma (Homo sapiens) (UniProt O75747); details: Compound concentration 1000.0 nM
# [7] = test system: Mast/stem cell growth factor receptor Kit (Homo sapiens), P10721 [V559D]; details: Compound concentration 1000.0 nM
# [8] = molecular target: Mitogen-activated protein kinase kinase kinase kinase 3 (Homo sapiens) (UniProt Q8IVH8); details: Compound concentration 1000.0 nM
# [9] = molecular target: Tyrosine-protein kinase receptor UFO (Homo sapiens) (UniProt P30530); details: Compound concentration 1000.0 nM
# [10] = molecular target: Serine/threonine-protein kinase 17B (Homo sapiens) (UniProt O94768); details: Compound concentration 1000.0 nM
# [11] = molecular target: MAP kinase-interacting serine/threonine-protein kinase 1 (Homo sapiens) (UniProt Q9BUB5); details: Compound concentration 1000.0 nM
# [12] = molecular target: Cyclin-G-associated kinase (Homo sapiens) (UniProt O14976); details: Compound concentration 1000.0 nM
# [13] = molecular target: Mitotic checkpoint serine/threonine-protein kinase BUB1 (Homo sapiens) (UniProt O43683); details: Compound concentration 1000.0 nM
# [14] = molecular target: Serine/threonine-protein kinase PAK 1 (Homo sapiens) (UniProt Q13153); details: Compound concentration 1000.0 nM
# [15] = molecular target: Serine/threonine-protein kinase NLK (Homo sapiens) (UniProt Q9UBE8); details: Compound concentration 1000.0 nM
# [16] = test system: Leucine-rich repeat serine/threonine-protein kinase 2 (Homo sapiens), Q5S007 [G2019S]; details: Compound concentration 1000.0 nM
# [17] = test system: Phosphatidylinositol 4,5-bisphosphate 3-kinase catalytic subunit alpha isoform (Homo sapiens), P42336 [Q546K]; details: Compound concentration 1000.0 nM
# [18] = molecular target: Mitogen-activated protein kinase kinase kinase 20 (Homo sapiens) (UniProt Q9NYL2); details: Compound concentration 1000.0 nM
# [19] = molecular target: Serine/threonine-protein kinase 32B (Homo sapiens) (UniProt Q9NY57); details: Compound concentration 1000.0 nM
# [20] = molecular target: G protein-coupled receptor kinase 3 (Homo sapiens) (UniProt P35626); details: Compound concentration 1000.0 nM
# Sequence of G protein-coupled receptor kinase 3 (Homo sapiens) (P35626 whole entry): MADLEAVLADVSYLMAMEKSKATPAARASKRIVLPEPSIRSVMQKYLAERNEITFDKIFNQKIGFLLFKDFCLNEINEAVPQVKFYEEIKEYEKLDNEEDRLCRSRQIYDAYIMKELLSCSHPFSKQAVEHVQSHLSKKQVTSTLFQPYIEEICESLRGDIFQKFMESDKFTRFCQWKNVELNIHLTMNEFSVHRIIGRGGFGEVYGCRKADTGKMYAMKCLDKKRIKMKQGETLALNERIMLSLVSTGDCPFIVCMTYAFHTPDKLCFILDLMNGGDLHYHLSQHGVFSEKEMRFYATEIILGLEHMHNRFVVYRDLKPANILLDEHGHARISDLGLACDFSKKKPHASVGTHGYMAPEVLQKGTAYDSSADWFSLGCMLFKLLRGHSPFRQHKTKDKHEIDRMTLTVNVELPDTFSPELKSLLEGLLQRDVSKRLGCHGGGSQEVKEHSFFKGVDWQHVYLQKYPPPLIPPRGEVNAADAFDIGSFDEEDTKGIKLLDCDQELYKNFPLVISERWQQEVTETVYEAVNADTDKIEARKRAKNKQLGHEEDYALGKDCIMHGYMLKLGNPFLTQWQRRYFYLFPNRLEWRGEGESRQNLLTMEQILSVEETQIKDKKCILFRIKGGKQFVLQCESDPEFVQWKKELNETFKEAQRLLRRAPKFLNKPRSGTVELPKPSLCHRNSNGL
# [21] = molecular target: Citron Rho-interacting kinase (Homo sapiens) (UniProt O14578); details: Compound concentration 1000.0 nM
# [22] = molecular target: Serine/threonine-protein kinase MARK1 (Homo sapiens) (UniProt Q9P0L2); details: Compound concentration 1000.0 nM
# [23] = molecular target: Angiopoietin-1 receptor (Homo sapiens) (UniProt Q02763); details: Compound concentration 1000.0 nM
# [24] = molecular target: Cyclin-dependent kinase 4 (Homo sapiens) (UniProt P11802); details: Compound concentration 1000.0 nM
# [25] = molecular target: Serine/threonine-protein kinase DCLK2 (Homo sapiens) (UniProt Q8N568); details: Compound concentration 1000.0 nM
# [26] = molecular target: Mitogen-activated protein kinase 6 (Homo sapiens) (UniProt Q16659); details: Compound concentration 1000.0 nM
# [27] = molecular target: Fibroblast growth factor receptor 1 (Homo sapiens) (UniProt P11362); details: Compound concentration 1000.0 nM
# Sequence of Fibroblast growth factor receptor 1 (Homo sapiens) (P11362 22-822 limits assumed): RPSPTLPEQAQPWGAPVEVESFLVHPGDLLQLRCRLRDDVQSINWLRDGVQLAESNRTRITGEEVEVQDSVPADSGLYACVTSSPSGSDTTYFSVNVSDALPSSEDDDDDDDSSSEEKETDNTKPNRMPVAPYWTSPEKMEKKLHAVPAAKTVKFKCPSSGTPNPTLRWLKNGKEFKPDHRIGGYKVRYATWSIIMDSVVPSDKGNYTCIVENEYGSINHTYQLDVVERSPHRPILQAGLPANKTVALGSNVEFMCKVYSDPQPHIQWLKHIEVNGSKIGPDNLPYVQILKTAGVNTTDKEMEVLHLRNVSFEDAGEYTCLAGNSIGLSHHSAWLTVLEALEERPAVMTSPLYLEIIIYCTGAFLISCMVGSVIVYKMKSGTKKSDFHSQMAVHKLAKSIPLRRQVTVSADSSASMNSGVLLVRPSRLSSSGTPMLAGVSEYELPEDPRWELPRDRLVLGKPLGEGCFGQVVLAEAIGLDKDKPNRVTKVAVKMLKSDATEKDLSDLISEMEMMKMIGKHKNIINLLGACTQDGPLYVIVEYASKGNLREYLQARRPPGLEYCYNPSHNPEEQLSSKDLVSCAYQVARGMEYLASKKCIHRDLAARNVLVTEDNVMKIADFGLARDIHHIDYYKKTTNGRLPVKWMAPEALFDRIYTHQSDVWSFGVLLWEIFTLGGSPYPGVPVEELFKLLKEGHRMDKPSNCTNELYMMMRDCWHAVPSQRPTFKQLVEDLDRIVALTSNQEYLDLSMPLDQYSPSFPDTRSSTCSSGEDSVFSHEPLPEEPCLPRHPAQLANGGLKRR
# [28] = molecular target: Serine/threonine-protein kinase PAK 3 (Homo sapiens) (UniProt O75914); details: Compound concentration 1000.0 nM
# [29] = molecular target: Cyclin-dependent kinase 9 (Homo sapiens) (UniProt P50750); details: Compound concentration 1000.0 nM
# [30] = molecular target: Receptor tyrosine-protein kinase erbB-3 (Homo sapiens) (UniProt P21860); details: Compound concentration 1000.0 nM
# [31] = molecular target: T1, 5-hydroxytryptamine receptor 1A (Homo sapiens) (UniProt P08908); details: Compound concentration 10.0 uM
# T1 sequence (whole entry): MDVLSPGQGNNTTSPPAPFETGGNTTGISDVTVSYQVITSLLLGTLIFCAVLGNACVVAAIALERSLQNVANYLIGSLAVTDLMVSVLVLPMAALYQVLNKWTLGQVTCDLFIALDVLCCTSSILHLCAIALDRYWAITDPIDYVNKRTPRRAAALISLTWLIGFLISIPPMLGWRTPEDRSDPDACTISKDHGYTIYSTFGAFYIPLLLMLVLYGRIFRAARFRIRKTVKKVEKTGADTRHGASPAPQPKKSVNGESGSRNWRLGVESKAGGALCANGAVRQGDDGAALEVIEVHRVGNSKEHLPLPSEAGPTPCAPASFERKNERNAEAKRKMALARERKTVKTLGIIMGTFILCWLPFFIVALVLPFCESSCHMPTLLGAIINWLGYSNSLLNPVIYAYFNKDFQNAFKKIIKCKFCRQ
# [32] = molecular target: Leucine-rich repeat serine/threonine-protein kinase 2 (Homo sapiens) (UniProt Q5S007); details: Compound concentration 1000.0 nM
# [33] = molecular target: 5-hydroxytryptamine receptor 2B (Homo sapiens, UniProt P41595); details: Compound concentration 10.0 uM
# Sequence of 5-hydroxytryptamine receptor 2B (P41595 whole entry): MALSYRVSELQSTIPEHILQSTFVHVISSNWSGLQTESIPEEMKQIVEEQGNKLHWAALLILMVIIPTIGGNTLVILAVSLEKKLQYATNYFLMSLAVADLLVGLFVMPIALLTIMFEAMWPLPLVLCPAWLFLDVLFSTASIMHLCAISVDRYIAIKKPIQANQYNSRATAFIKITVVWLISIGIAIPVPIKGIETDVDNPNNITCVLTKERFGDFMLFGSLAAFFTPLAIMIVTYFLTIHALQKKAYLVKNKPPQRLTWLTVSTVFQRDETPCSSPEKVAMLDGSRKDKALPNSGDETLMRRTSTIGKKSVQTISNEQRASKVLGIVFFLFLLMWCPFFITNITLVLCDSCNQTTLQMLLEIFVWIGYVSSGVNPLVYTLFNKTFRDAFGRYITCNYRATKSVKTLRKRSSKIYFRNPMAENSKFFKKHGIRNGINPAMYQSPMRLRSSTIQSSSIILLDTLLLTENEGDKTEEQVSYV
# [34] = molecular target: Proto-oncogene tyrosine-protein kinase receptor Ret (Homo sapiens) (UniProt P07949); details: Compound concentration 1000.0 nM
# [35] = molecular target: Serine/threonine-protein kinase ULK2 (Homo sapiens) (UniProt Q8IYT8); details: Compound concentration 1000.0 nM
# Sequence of Serine/threonine-protein kinase ULK2 (Homo sapiens) (Q8IYT8 whole entry): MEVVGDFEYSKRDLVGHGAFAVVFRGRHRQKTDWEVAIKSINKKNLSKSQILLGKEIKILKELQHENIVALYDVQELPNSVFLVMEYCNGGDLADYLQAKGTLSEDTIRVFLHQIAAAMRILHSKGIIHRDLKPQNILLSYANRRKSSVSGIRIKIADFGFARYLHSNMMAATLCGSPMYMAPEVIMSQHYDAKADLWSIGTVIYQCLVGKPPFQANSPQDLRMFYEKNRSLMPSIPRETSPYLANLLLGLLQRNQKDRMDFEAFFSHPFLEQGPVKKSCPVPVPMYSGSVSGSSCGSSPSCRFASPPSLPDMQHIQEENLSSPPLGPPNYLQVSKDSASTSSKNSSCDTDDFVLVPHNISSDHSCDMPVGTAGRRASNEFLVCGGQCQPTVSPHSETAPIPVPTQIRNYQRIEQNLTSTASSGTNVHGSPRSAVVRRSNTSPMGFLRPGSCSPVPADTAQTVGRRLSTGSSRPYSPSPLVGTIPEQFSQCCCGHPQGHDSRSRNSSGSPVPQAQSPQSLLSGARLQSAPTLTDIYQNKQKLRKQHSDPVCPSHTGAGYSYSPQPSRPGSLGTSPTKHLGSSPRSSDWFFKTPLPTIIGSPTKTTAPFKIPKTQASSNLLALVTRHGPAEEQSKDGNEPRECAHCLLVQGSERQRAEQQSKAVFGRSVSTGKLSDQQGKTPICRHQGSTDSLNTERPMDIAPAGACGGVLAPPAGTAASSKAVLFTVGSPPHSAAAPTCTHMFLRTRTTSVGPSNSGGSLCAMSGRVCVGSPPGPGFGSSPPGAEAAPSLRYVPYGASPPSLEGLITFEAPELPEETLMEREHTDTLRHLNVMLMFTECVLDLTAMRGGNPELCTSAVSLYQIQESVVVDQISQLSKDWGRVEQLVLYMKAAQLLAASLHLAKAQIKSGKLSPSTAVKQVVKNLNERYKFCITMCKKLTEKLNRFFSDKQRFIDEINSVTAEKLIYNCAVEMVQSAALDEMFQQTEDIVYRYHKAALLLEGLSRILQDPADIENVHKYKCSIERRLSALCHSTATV
# [36] = molecular target: Mitogen-activated protein kinase kinase kinase 9 (Homo sapiens) (UniProt P80192); details: Compound concentration 1000.0 nM
# Sequence of Mitogen-activated protein kinase kinase kinase 9 (Homo sapiens) (P80192 whole entry, looked up): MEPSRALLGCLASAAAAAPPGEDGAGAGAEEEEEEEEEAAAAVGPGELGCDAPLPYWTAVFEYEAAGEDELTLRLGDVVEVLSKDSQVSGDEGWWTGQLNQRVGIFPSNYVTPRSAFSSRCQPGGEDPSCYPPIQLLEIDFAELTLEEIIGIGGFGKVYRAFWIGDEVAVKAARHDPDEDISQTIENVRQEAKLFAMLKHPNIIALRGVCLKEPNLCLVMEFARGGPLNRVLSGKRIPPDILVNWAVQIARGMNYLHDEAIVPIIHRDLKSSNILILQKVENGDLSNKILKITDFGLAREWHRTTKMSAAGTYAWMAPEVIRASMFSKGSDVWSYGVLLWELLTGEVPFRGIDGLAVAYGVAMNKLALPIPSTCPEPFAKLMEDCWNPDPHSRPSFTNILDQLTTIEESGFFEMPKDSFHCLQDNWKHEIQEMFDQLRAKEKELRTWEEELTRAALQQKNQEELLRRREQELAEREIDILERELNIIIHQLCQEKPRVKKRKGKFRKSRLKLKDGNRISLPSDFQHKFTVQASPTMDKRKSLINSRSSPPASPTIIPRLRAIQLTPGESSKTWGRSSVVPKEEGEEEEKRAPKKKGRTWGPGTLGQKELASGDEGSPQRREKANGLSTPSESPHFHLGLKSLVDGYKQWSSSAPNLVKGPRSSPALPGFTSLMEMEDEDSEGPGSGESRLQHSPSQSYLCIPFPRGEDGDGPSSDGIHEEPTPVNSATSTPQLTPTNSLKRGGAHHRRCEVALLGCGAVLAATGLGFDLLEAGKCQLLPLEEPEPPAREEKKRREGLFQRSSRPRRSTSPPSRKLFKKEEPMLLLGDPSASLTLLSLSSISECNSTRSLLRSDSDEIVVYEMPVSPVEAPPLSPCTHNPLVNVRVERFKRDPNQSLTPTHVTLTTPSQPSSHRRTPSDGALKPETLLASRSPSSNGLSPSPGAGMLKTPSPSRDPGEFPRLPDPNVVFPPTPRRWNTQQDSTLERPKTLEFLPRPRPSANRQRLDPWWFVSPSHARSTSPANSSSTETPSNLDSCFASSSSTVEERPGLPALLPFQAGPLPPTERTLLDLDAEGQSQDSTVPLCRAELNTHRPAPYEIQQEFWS
# [37] = molecular target: Serine/threonine-protein kinase PLK4 (Homo sapiens) (UniProt O00444); details: Compound concentration 1000.0 nM
# Sequence of Serine/threonine-protein kinase PLK4 (Homo sapiens) (O00444 whole entry): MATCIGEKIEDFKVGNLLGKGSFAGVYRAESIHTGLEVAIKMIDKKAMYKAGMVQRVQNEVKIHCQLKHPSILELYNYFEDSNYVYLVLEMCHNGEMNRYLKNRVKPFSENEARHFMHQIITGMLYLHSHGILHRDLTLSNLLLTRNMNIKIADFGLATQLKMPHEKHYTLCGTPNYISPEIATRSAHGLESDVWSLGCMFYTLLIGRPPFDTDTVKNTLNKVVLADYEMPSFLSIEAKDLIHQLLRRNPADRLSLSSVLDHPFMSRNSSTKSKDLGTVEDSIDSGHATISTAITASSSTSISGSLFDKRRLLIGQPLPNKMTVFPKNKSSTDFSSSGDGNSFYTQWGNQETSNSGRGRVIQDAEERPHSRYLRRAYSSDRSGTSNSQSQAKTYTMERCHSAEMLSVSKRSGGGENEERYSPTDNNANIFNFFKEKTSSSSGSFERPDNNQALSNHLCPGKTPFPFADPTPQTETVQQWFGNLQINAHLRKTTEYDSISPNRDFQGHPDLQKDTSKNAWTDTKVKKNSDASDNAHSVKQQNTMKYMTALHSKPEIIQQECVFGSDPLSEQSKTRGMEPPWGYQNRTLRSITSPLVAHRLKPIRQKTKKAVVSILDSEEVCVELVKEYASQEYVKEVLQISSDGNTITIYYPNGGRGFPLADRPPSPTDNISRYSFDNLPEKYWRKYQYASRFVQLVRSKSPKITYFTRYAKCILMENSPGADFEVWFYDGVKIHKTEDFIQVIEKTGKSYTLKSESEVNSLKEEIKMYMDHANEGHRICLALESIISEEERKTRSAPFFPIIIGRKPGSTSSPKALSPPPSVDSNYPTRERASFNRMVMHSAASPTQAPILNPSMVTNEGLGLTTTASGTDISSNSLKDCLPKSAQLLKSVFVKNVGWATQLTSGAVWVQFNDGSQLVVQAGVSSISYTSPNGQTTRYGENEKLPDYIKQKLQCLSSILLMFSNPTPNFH
# [38] = molecular target: Protein kinase C theta type (Homo sapiens) (UniProt Q04759); details: Compound concentration 1000.0 nM
# [39] = molecular target: Tyrosine-protein kinase Fgr (Homo sapiens) (UniProt P09769); details: Compound concentration 1000.0 nM
Compound,residual activity [1],inhibition [2],inhibition [3],residual activity [4],residual activity [5],residual activity [6],residual activity [7],residual activity [8],residual activity [9],residual activity [10],residual activity [11],residual activity [12],residual activity [13],residual activity [14],residual activity [15],residual activity [16],residual activity [17],residual activity [18],residual activity [19],residual activity [20],further results
CCCCN(CCCC)C(=O)CN1C[C@@H](c2cc(OC)c3c(c2)OCO3)[C@H](C(=O)O)[C@H]1CC(C)(C)CCC [A-545],100%,-7.99%,27.1%,100%,100%,80.3%,100%,94.1%,87.2%,100%,100%,95.8%,94.9%,95.9%,100%,100%,100%,91.3%,98.4%,87.6%,residual activity [21]: 90.5%; residual activity [22]: 88.7%; residual activity [23]: 100%; residual activity [24]: 100%; residual activity [25]: 87.4%; residual activity [26]: 96.5%; residual activity [27]: 100%; residual activity [28]: 89.4%; residual activity [29]: 100%; residual activity [30]: 100%; inhibition [31]: 76.3%; residual activity [32]: 65.9%; inhibition [33]: 76%; residual activity [34]: 86.1%; residual activity [35]: 89.2%; residual activity [36]: 98.8%; residual activity [37]: 84.1%; residual activity [38]: 78.6%; residual activity [39]: 92.4%
CCCCN(CCCC)C(=O)CN1C[C@H](c2cc(OC)c3c(c2)OCO3)[C@@H](C(=O)O)[C@@H]1CC(C)(C)CCC [ABT-546],58.3%,15.3%,3.64%,100%,100%,100%,96.1%,100%,100%,100%,93.3%,100%,75.4%,100%,100%,100%,67.3%,85.2%,81.7%,50.8%,residual activity [21]: 100%; residual activity [22]: 96.5%; residual activity [23]: 90.5%; residual activity [24]: 42.7%; residual activity [25]: 100%; residual activity [26]: 100%; residual activity [27]: 89.4%; residual activity [28]: 100%; residual activity [29]: 100%; residual activity [30]: 100%; inhibition [31]: 20.6%; residual activity [32]: 38%; inhibition [33]: -9.89%; residual activity [34]: 100%; residual activity [35]: 88.8%; residual activity [36]: 100%; residual activity [37]: 100%; residual activity [38]: 100%; residual activity [39]: 100%
